US20210380556A1, “HETEROARYLAZOLE COMPOUND AND PEST CONTROL AGENT” (Nippon Soda Co., Ltd., priority 2018, published 2021)

Columns and labels:
Plutella xylostella = experiment: Test Example 3: efficacy on Plutella xylostella (cabbage leaf dip); assay type: in vivo; conditions: foliar, 72 h, cabbage leaves dipped 30 seconds, second instar larvae, after 3 days, read-out: insecticidal rate
Method: (§1) 5 parts of the heteroaryl azole compound of the present invention, 93.6 parts of dimethylformamide, and 1.4 parts of polyoxyethylene alkyl aryl ether were mixed and dissolved to prepare emulsion (I) containing 5% of the active ingredient.
(§2) Insecticidal rate (%)=(The number of dead insects/The number of tested insects)×100
The emulsion (I) was diluted with water such that the concentration of the compound of the present invention was 125 ppm. Cabbage leaves were dipped in the dilution for 30 seconds. The resulting cabbage leaves were placed in a petri dish. Five second instar larvae of Plutella xylostella were released thereto. The petri dish was placed in a thermostat chamber having a temperature of 25° C. and a humidity of 60%. Life and death were determined after 3 days from the release of the insects, and the insecticidal rate was calculated. The test was conducted in duplicate.

Mythimna separata = experiment: Test Example 1: efficacy on Mythimna separata (treated artificial feed); assay type: in vivo; conditions: 1 μl of emulsion (I) (5% active ingredient) in 0.8 g artificial feed; second instar larvae; 25° C.; fifth day
Source text: as §1
For a control, 98.5 parts of dimethylformamide and 1.5 parts of polyoxyethylene alkyl aryl ether were mixed and dissolved to prepare emulsion (II).
as §2
0.8 g of commercially available artificial feed (Insecta LFS, manufactured by Nosan Corp.) and 1 μl of the emulsion (I) were well mixed to obtain test feed.
A plastic test container (capacity: 1.4 ml) was packed with 0.2 g of the test feed per treatment plot. Then, two second instar larvae of Mythimna separata were inoculated to each treatment plot. A plastic lid was put on the test container so as to prevent escape of the second instar larvae of Mythimna separata. The container was placed in a thermostat chamber of 25° C. On the fifth day, the insecticidal rate and the food intake were examined. The test was conducted in duplicate.
The insecticidal rate and the food intake of a control plot were examined in the same way as in Test Example 1 except that the emulsion (I) was changed to the emulsion (II).

Musca domestica = experiment: Test Example 9: efficacy on Musca domestica (treated sugar cube); assay type: in vivo; conditions: 100 ppm per g of a cube of sugar; female adults; 25° C.; after hours (number not given)
Method: as §2
The compound of the present invention was diluted with acetone and added dropwise at 100 ppm per g of a cube of sugar. The cube of sugar was placed in a plastic cup. Ten female adults of Musca domestica were released, and a lid was put on the plastic cup. The plastic cup was stored at 25° C. Life and death were determined after hours from the release of the insects, and the insecticidal rate was calculated. The test was conducted in duplicate.

For CCS(=O)(=O)c1cnc(-n2cnc(N)n2)nc1-c1ncc(C(F)(F)C(F)(F)C(F)(F)C(F)(F)F)n1C, the melting point was 219 to 221 °C.

Work on CCS(=O)(=O)c1cc(Br)cnc1-c1nnc(C(F)(F)C(F)(F)C(F)(F)C(F)(F)F)n1C yielded a melting point of 74 to 76 °C.

For CCS(=O)(=O)c1cnc(-c2ncn(C)n2)nc1-c1ncc(C(F)(F)C(F)(F)C(F)(F)F)n1C [a-1], the pest or weed control at 125 ppm (Plutella xylostella) was at least 80% and the “insecticidal rate or food intake as compared with the control plot” value (Mythimna separata) was “insecticidal rate of 100% for Mythimna separata or a food intake of 10% or less”.

In the case of CCS(=O)(=O)c1cnc(-c2ncn(C)n2)nc1-c1ncc(C(F)(F)C(F)(F)C(F)(F)C(F)(F)F)n1C [a-2, 5-(ethylsulfonyl)-2-(1-methyl-1H-1,2,4-triazol-3-yl)-4-(1-methyl-5-(perfluorobutyl)-1H-imidazol-2-yl)pyrimidine], the pest or weed control at 125 ppm (Plutella xylostella) is reported as at least 80% and the “insecticidal rate or food intake as compared with the control plot” value (Mythimna separata) is reported as “insecticidal rate of 100% for Mythimna separata or a food intake of 10% or less”.

Work on CCS(=O)(=O)c1cnc(-c2ncccn2)nc1-c1ncc(C(F)(F)C(F)(F)C(F)(F)C(F)(F)F)n1C [a-4] yielded a pest or weed control at 125 ppm (Plutella xylostella) of at least 80%.

For CCS(=O)(=O)c1cnc(-n2ncnc2N)nc1-c1ncc(C(F)(F)C(F)(F)C(F)(F)C(F)(F)F)n1C [a-6], the pest or weed control at 125 ppm (Plutella xylostella) was at least 80% and the “insecticidal rate or food intake as compared with the control plot” value (Mythimna separata) was “insecticidal rate of 100% for Mythimna separata or a food intake of 10% or less”.

In the case of CCS(=O)(=O)c1cnc(-c2ncnn2C)nc1-c1ncc(C(F)(F)C(F)(F)C(F)(F)C(F)(F)F)n1C [a-10], the pest or weed control at 125 ppm (Plutella xylostella) is reported as at least 80%.

With CCS(=O)(=O)c1cc(-c2ncccn2)cnc1-c1ncc(C(F)(F)C(F)(F)C(F)(F)C(F)(F)F)n1C [b-4] the insecticidal rate (Musca domestica) was at least 80% and the “insecticidal rate or food intake as compared with the control plot” value (Mythimna separata) was “insecticidal rate of 100% for Mythimna separata or a food intake of 10% or less”.

In the case of CCS(=O)(=O)c1cc(-c2ncccn2)cnc1-c1ncc(C(F)(F)C(F)(F)C(F)(F)F)n1C [b-19, 2-(5-(ethylsulfonyl)-6-(1-methyl-5-(perfluoropropyl)-1H-imidazol-2-yl)pyridin-3-yl)pyrimidine], the pest or weed control at 125 ppm (Plutella xylostella) is reported as at least 80%.

With CCS(=O)(=O)c1cc(-c2ncccc2F)cnc1-c1ncc(C(F)(F)C(F)(F)C(F)(F)C(F)(F)F)n1C [b-61] the “insecticidal rate or food intake as compared with the control plot” value (Mythimna separata) was “insecticidal rate of 100% for Mythimna separata or a food intake of 10% or less”.

With CCS(=O)(=O)c1cc(-c2ncccc2Cl)cnc1-c1ncc(C(F)(F)C(F)(F)C(F)(F)F)n1C [b-62] the “insecticidal rate or food intake as compared with the control plot” value (Mythimna separata) was “insecticidal rate of 100% for Mythimna separata or a food intake of 10% or less”.

In the case of CCS(=O)(=O)c1cc(C2CC2)cnc1-c1ncc(C(F)C(F)(F)C(F)(F)C(F)(F)C(F)(F)F)n1C (centres unmarked) [b-63], the “insecticidal rate or food intake as compared with the control plot” value (Mythimna separata) is reported as “insecticidal rate of 100% for Mythimna separata or a food intake of 10% or less”.

In the case of CCS(=O)(=O)c1cc(-c2ncccn2)cnc1-c1ncc(C(F)C(F)(F)C(F)(F)C(F)(F)C(F)(F)F)n1C (centres unmarked) [b-64], the “insecticidal rate or food intake as compared with the control plot” value (Mythimna separata) is reported as “insecticidal rate of 100% for Mythimna separata or a food intake of 10% or less”.

With CCS(=O)(=O)c1cc(-c2ccccn2)cnc1-c1ncc(C(F)C(F)(F)C(F)(F)C(F)(F)C(F)(F)F)n1C (centres unmarked) [b-66] the “insecticidal rate or food intake as compared with the control plot” value (Mythimna separata) was “insecticidal rate of 100% for Mythimna separata or a food intake of 10% or less”.

With CCS(=O)(=O)c1cc(OCC(F)(F)C(F)(F)F)cnc1-c1ncc(C(F)C(F)(C(F)(F)F)C(F)(F)F)n1C (centres unmarked) [b-68] the “insecticidal rate or food intake as compared with the control plot” value (Mythimna separata) was “insecticidal rate of 100% for Mythimna separata or a food intake of 10% or less”.

With CCS(=O)(=O)c1cc(OC(C)(C)C(F)(F)F)cnc1-c1ncc(C(F)C(F)(C(F)(F)F)C(F)(F)F)n1C (centres unmarked) [b-69] the “insecticidal rate or food intake as compared with the control plot” value (Mythimna separata) was “insecticidal rate of 100% for Mythimna separata or a food intake of 10% or less”.

In the case of CCS(=O)(=O)c1cc(/C=N/OCC(F)(F)C(F)(F)F)cnc1-c1ncc(C(F)C(F)(F)C(F)(F)F)n1C (centres unmarked) [c-1], the pest or weed control at 125 ppm (Plutella xylostella) is reported as at least 80% and the “insecticidal rate or food intake as compared with the control plot” value (Mythimna separata) is reported as “insecticidal rate of 100% for Mythimna separata or a food intake of 10% or less”.

Compound CCS(=O)(=O)c1cc(C2CC2)cnc1-c1nnc(C(F)(F)C(F)(F)C(F)(F)C(F)(F)F)n1C [c-4] has a pest or weed control at 125 ppm (Plutella xylostella) of at least 80%.

With CCS(=O)(=O)c1cc(-c2ncccn2)cnc1-c1nnc(C(F)(F)C(F)(F)C(F)(F)C(F)(F)F)n1C [c-5] the pest or weed control at 125 ppm (Plutella xylostella) was at least 80% and the “insecticidal rate or food intake as compared with the control plot” value (Mythimna separata) was “insecticidal rate of 100% for Mythimna separata or a food intake of 10% or less”.

In the case of CCS(=O)(=O)c1cc(C2CC2)c[n+]([O-])c1-c1ncc(C(F)C(F)(C(F)(F)F)C(F)(F)F)n1C (centres unmarked) [c-8], the “insecticidal rate or food intake as compared with the control plot” value (Mythimna separata) is reported as “insecticidal rate of 100% for Mythimna separata or a food intake of 10% or less”.
